Assays:
[1] = type: in vivo; conditions: human urine after limonene inhalation
[2] = Stable isotope tracing in mouse urine after i.p. limonene or limonene-d5; conditions: after limonene / limonene-d5 66.8 mg/kg i.p.; overnight urine
[3] = ref Falk-Filipsson et al., 1993; cited from earlier work

Compound | Observed Tmax ([1]; creatinine-normalized peak response) [h] | Elimination t1/2 ([1]; pseudo one-compartment model) [h] | Ka (first-order urinary generation rate constant) ([1]; pseudo one-compartment model) [h⁻¹] | Ke (first-order urinary elimination rate constant) ([1]; pseudo one-compartment model) [h⁻¹] | Detection in mouse urine [2] | Half-life in blood (t1/2α) [3]
C=C(C)C1CCC(C(=O)O)CC1 (stereo not drawn) [LM1, DHPA] | 1 | 1.01 ± 0.40 | 0.93 ± 0.37 | 0.68 ± 0.27 | absent | –
C=C(C)[C@H]1CC=C(C)CC1 [Limonene] | – | – | – | – | – | ~ 3 min
